{"source": "patent US9828396B2", "about": "“Alkyne compounds for treatment of complement mediated disorders” (Achillion Pharmaceuticals, Inc., priority 2014, dated 2017)"}
{"molecular_target": "Human factor D (Homo sapiens (Human), UniProt P00746)", "sequence (P00746 26-253)": "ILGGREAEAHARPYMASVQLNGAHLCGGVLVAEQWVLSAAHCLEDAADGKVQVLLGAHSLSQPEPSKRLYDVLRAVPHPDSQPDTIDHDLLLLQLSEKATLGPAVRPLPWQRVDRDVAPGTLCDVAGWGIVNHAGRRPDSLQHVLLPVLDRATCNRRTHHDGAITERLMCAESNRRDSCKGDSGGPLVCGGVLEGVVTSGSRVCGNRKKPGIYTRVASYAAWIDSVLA", "experiment": "Human Factor D Assay", "type": "biochemical", "details": "Human factor D 80 nM, substrate Z-L-Lys-SBzl, assay of Example 12", "summary_of_the_method": "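Serum-purified human factor D (80 nM final) was preincubated 5 min at room temperature with compound in 50 mM Tris, 1 M NaCl, pH 7.5. Z-L-Lys-SBzl and DTNB (100 μM each) were added and OD405 followed kinetically over 30 min; IC50 from non-linear regression of percent inhibition.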", "units": {"IC50": "nM"}}
{"smiles": "CC(=O)c1cn(CC(=O)N2C[C@H](F)C[C@H]2C(=O)NCc2cccc(Cl)c2F)c2ccc(C#Cc3ncc(O)cn3)cc12", "note": "[Compound 13, (2S,4R)-1-(2-(3-acetyl-5-((5-hydroxypyrimidin-2-yl)ethynyl)-1H-indol-1-yl)acetyl)-N-(3-chloro-2-fluorobenzyl)-4-fluoropyrrolidine-2-carboxamide]", "IC50": "< 1000"}
{"smiles": "CC(=O)c1cn(CC(=O)N2C[C@H](F)C[C@H]2C(=O)NCc2cccc(Cl)c2F)c2ccc(C#Cc3cnsc3)cc12", "note": "[Compound 18, (2S,4R)-1-(2-(3-acetyl-5-(isothiazol-4-ylethynyl)-1H-indol-1-yl)acetyl)-N-(3-chloro-2-fluorobenzyl)-4-fluoropyrrolidine-2-carboxamide]", "IC50": "< 1000"}
{"smiles": "CC(=O)c1cn(CC(=O)N2C[C@H](F)C[C@H]2C(=O)NCc2cccc(Cl)c2F)c2ccc(C#Cc3ncccn3)cc12", "note": "[Compound 9, (2S,4R)-1-(2-(3-acetyl-5-(pyrimidin-2-ylethynyl)-1H-indol-1-yl)acetyl)-N-(3-chloro-2-fluorobenzyl)-4-fluoropyrrolidine-2-carboxamide]", "IC50": "< 1000"}
